According to PMC11589570, “Critical assessment of LC3/GABARAP ligands used for degrader development and ligandability of LC3/GABARAP binding pockets” (Nature Communications, 2024):
Several values for one entry are separate records, joined by “and”; a condition that tells them apart may be missing. Equal values may be shown once.

Tests used:
[1] = molecular target: LC3B (Homo sapiens, UniProt Q9GZQ8); assay: FP assay with Cy5-labelled p62 LIR tracer (protein titration and tracer displacement); type: binding; conditions: for normalized FP signal, p62 LIR tracer displacement: LC3B; for compound titration LC3B (displacement curve, FP signal): two replicate columns per compound
[2] = molecular target: GABARAP (Homo sapiens, UniProt O95166); assay: as above; type: binding; conditions: two replicate columns per compound
[3] = molecular target: GABARAPL1 (Homo sapiens, UniProt Q9H0R8); assay: as above; type: binding; conditions: for compound titration GABARAPL1 (displacement curve, FP signal): two replicate columns per compound; for FP tracer displacement curve signal (compound titration): duplicate values, listed as Cov2
[4] = tested on: all LC3/GABARAPs; assay: Covalent compound screening by ESI LC-MS; conditions: 50 µM protein, 100 µM compound, 90 min
[5] = molecular target: LC3A (Homo sapiens, UniProt Q9H492); assay: FP assay with Cy5-labelled p62 LIR tracer (protein titration and tracer displacement); type: binding; conditions: two replicate columns per compound
[6] = molecular target: LC3C (Homo sapiens, UniProt Q9BXW4); assay: as above; type: binding; conditions: two replicate columns per compound
[7] = log10 concentration [M] -3.82391
[8] = log10 concentration [M] -4.1549
[9] = log10 concentration [M] -4.60206
[10] = log10 concentration [M] -5.30103
[11] = log10 concentration [M] -5.69897
[12] = log10 concentration [M] -6.22185
[13] = log10 concentration [M] -6.69897
[14] = log10 concentration [M] -7.30103
[15] = log10 concentration [M] -7.79588
[16] = log10 concentration [M] -8.08092

Chain of LC3C (Q9BXW4 1-126): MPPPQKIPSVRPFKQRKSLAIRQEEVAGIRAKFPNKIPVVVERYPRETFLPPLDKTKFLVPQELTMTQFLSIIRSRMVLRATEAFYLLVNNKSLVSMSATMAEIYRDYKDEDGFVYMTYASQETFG
Chain of GABARAP (O95166 1-116): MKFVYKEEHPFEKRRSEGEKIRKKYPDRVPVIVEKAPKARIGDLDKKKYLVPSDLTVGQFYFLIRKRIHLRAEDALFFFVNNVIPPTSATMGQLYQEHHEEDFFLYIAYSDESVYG
Chain of GABARAPL1 (Q9H0R8 whole entry): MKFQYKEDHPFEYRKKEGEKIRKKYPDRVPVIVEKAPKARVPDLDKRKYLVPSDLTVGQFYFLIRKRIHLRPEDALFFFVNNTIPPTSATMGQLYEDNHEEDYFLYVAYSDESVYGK

## CC(=O)N1CCN(CCNC=C2C(=O)CC(c3ccc(Cl)cc3)CC2=O)CC1 (stereo not drawn) [compound 6]
[1]; [7]
  normalized FP signal, p62 LIR tracer displacement: 71.5789 and 68.1579
  compound titration LC3B (displacement curve, FP signal): 71.5789 and 68.1579
[1]; [8]
  normalized FP signal, p62 LIR tracer displacement: 85 and 83.6842
  compound titration LC3B (displacement curve, FP signal): 85 and 83.6842
[1]; [9]
  normalized FP signal, p62 LIR tracer displacement: 92.8947 and 95.7895
  compound titration LC3B (displacement curve, FP signal): 92.8947 and 95.7895
[1]; log10 concentration [M] -5
  normalized FP signal, p62 LIR tracer displacement: 95.7895 and 97.3684
  compound titration LC3B (displacement curve, FP signal): 95.7895 and 97.3684
[1]; [10]
  normalized FP signal, p62 LIR tracer displacement: 97.6316 and 99.7368
  compound titration LC3B (displacement curve, FP signal): 97.6316 and 99.7368
[1]; [11]
  normalized FP signal, p62 LIR tracer displacement: 96.0526 and 102.368
  compound titration LC3B (displacement curve, FP signal): 96.0526 and 102.368
[1]; [12]
  normalized FP signal, p62 LIR tracer displacement: 95 and 100.789
  compound titration LC3B (displacement curve, FP signal): 95 and 100.789
[1]; [13]
  normalized FP signal, p62 LIR tracer displacement: 99.2105 and 96.8421
  compound titration LC3B (displacement curve, FP signal): 99.2105 and 96.8421
[1]; [14]
  normalized FP signal, p62 LIR tracer displacement: 99.7368 and 100.263
  compound titration LC3B (displacement curve, FP signal): 99.7368 and 100.263
[1]; [15]
  normalized FP signal, p62 LIR tracer displacement: 97.6316 and 101.579
  compound titration LC3B (displacement curve, FP signal): 97.6316 and 101.579
[1]; [16]
  normalized FP signal, p62 LIR tracer displacement: 95.2632 and 105.263
  compound titration LC3B (displacement curve, FP signal): 95.2632 and 105.263
[2]; [7]
  compound titration GABARAP (displacement curve, FP signal): 90.8621 and 84.1379
[2]; [8]
  compound titration GABARAP (displacement curve, FP signal): 94.8276 and 93.7931
[2]; [9]
  compound titration GABARAP (displacement curve, FP signal): 93.1034 and 98.2759
[2]; log10 concentration [M] -5
  compound titration GABARAP (displacement curve, FP signal): 100.69 and 98.6207
[2]; [10]
  compound titration GABARAP (displacement curve, FP signal): 97.5862 and 99.4828
[2]; [11]
  compound titration GABARAP (displacement curve, FP signal): 92.2414 and 94.1379
[2]; [12]
  compound titration GABARAP (displacement curve, FP signal): 97.4138 and 95.5172
[2]; [13]
  compound titration GABARAP (displacement curve, FP signal): 98.1034 and 97.7586
[2]; [14]
  compound titration GABARAP (displacement curve, FP signal): 98.9655 and 102.759
[2]; [15]
  compound titration GABARAP (displacement curve, FP signal): 95.6897 and 95
[2]; [16]
  compound titration GABARAP (displacement curve, FP signal): 97.069 and 98.9655
[3]; [7]
  compound titration GABARAPL1 (displacement curve, FP signal): 89 and 90.4286
[3]; [8]
  compound titration GABARAPL1 (displacement curve, FP signal): 94.7143 and 97.7143
[3]; [9]
  compound titration GABARAPL1 (displacement curve, FP signal): 98.2857 and 100.143
[3]; log10 concentration [M] -5
  compound titration GABARAPL1 (displacement curve, FP signal): 102.429 and 101.571
[3]; [11]
  FP tracer displacement curve signal (compound titration): 94.4286 and 98.2857
[3]; [12]
  FP tracer displacement curve signal (compound titration): 101.857 and 101.143
[3]; [13]
  FP tracer displacement curve signal (compound titration): 102.714 and 104.571
[3]; [14]
  FP tracer displacement curve signal (compound titration): 102.571 and 101.857
[3]; [15]
  FP tracer displacement curve signal (compound titration): 99.8571 and 100.429
[3]; [16]
  FP tracer displacement curve signal (compound titration): 102.571 and 101
[4]
  covalent labelling (mass shift, ESI MS): successfully labelled
[5]; [7]
  compound titration LC3A (displacement curve, FP signal): 92.8947 and 97.3684
[5]; [8]
  compound titration LC3A (displacement curve, FP signal): 97.1053 and 102.368
[5]; [9]
  compound titration LC3A (displacement curve, FP signal): 99.7368 and 100.789
[5]; log10 concentration [M] -5
  compound titration LC3A (displacement curve, FP signal): 103.421 and 103.947
[5]; [10]
  compound titration LC3A (displacement curve, FP signal): 103.421 and 100.789
[5]; [11]
  compound titration LC3A (displacement curve, FP signal): 99.7368 and 96.0526
[5]; [12]
  compound titration LC3A (displacement curve, FP signal): 101.316 and 102.105
[5]; [13]
  compound titration LC3A (displacement curve, FP signal): 103.947 and 107.368
[5]; [14]
  compound titration LC3A (displacement curve, FP signal): 104.211 and 101.579
[5]; [15]
  compound titration LC3A (displacement curve, FP signal): 104.211 and 98.6842
[5]; [16]
  compound titration LC3A (displacement curve, FP signal): 104.211 and 93.9474
[6]; [7]
  compound titration LC3C (displacement curve, FP signal): 87.8 and 86.8
[6]; [8]
  compound titration LC3C (displacement curve, FP signal): 94.6 and 92
[6]; [9]
  compound titration LC3C (displacement curve, FP signal): 98.2 and 98.8
[6]; log10 concentration [M] -5
  compound titration LC3C (displacement curve, FP signal): 94.6 and 102.4
[6]; [10]
  compound titration LC3C (displacement curve, FP signal): 93.4 and 98.8
[6]; [11]
  compound titration LC3C (displacement curve, FP signal): 90 and 93.6
[6]; [12]
  compound titration LC3C (displacement curve, FP signal): 93.6 and 98.6
[6]; [13]
  compound titration LC3C (displacement curve, FP signal): 97.6 and 98.8
[6]; [14]
  compound titration LC3C (displacement curve, FP signal): 101.6 and 101.4
[6]; [15]
  compound titration LC3C (displacement curve, FP signal): 90.4 and 95.6
[6]; [16]
  compound titration LC3C (displacement curve, FP signal): 99.2 and 98
